Experimental data published in US9040061B2, “Topical formulation for administering a compound” (Rigel Pharmaceuticals, Inc., priority 2011, dated 2015).
In brackets after ≈: the same amount, converted by molar mass. Structures can show the parent of a compound that is named as a salt. Where two headings read alike, the source gives them in different places. Marks after values point to notes of the source that are not given here.

Columns and labels:
[1] = Solubility studies of compound I; format: physicochemical
[2] = Solubility studies of compound I; format: physicochemical; remark: listed apart in the source
Experimental: The solubility of compound I free base in water is only 2 μg/mL. […] Accordingly, the free base was utilized for the formulation development of compound I.

[3] = tested on: human Ramos B cells stimulated with human IL-4 (JAK1 and JAK3, CD23 upregulation); assay: Ramos B-cell line stimulated with IL-4, CD23 upregulation (FACS); format: cell-based; details: IL-4 50 units/mL for 20-24 hours, anti-CD23-PE FACS
Text: One means of assaying for JAK inhibition is detection of the effect of compound I on the upregulation of downstream gene products. In the Ramos/IL4 assay, B-cells are stimulated with the cytokine Interleukin-4 (IL-4) leading to the activation of the JAK/Stat pathway through phosphorylation of the JAK family kinases, JAK1 and JAK3, which in turn phosphorylate and activate the transcription factor Stat-6. […] To study the effect of inhibitors (for example, the 2,4-substituted pyrimidinediamine compounds described herein) on the JAK1 and JAK3 kinases, human Ramos B cells are stimulated with human IL-4. Twenty to 24 hours post stimulation, cells are stained for upregulation of CD23 and analyzed using flow cytometry (FACS). […] An exemplary assay of this type is described in greater detail below.
B-cells stimulated with cytokine Interleukin-4 (IL-4) activate the JAK/Stat pathway through phosphorylation of the JAK family kinases, JAK-1 and JAK-3, which in turn phosphorylate and activate the transcription factor Stat-6. […] To study the effect of inhibitors on the JAK family kinases, human Ramos B cells are stimulated with human IL-4.
The Ramos B-cell line was acquired from ATCC (ATCC Catalog No. CRL-1596). […]
Cells were spun down and suspended in RPMI with 5% serum. […] Cells were then spun down and stained with anti-CD23-PE (BD Pharmingen, San Diego, Calif., Cat No. 555711) and analyzed by FACS. […]

[4] = tested on: primary human T-cells; assay: Primary human T-cell proliferation assay stimulated with IL-2; format: cell-based; details: IL-2, 72 hours, CellTiter-Glo
Text: The JAK activity of compound I may further be characterized by assaying the effect of compound I on the proliferative response of primary human T-cells. In this assay, primary human T-cells derived from peripheral blood and pre-activated through stimulation of the T-cell receptor and CD28, proliferate in culture in response to the cytokine Interleukin-2 (IL-2). This proliferative response is dependent on the activation of JAK1 and JAK3 tyrosine kinases, which phosphorylate and activate the transcription factor Stat-5. The primary human T-cells are incubated with compound I in the presence of IL-2 for 72 hours and at the assay endpoint intracellular ATP concentrations are measured to assess cell viability. A reduction in cell proliferation compared to control conditions is indicative of inhibition of the JAK kinase pathway. An exemplary assay of this type is described in greater detail below.
Primary human T-cells derived from peripheral blood and pre-activated through stimulation of the T-cell receptor and CD28, proliferate in vitro in response to the cytokine Interleukin-2 (IL-2). […]
Proliferation was measured using CellTiter-Glo® Luminescent Cell Viability Assay (Promega), which determines the number of viable cells in culture based on quantitation of the ATP present, as an indicator of metabolically active cells. […]

[5] = molecular target: T1, Syk (Homo sapiens, UniProt P43405); assay: Human cell based assay against Syk; details: human cell based assays, read-out: half maximal effective concentration (EC50)
T1 construct: endogenous in cells

[6] = tested on: other cytokine (IL-1β and TNFα) signaling; assay: Other cytokine signaling; format: cell-based
[7] = tested on: receptor tyrosine kinase (RTK) signaling; assay: Receptor tyrosine kinase signaling; format: cell-based
[8] = tested on: cell proliferation; assay: Cell proliferation; format: cell-based

## C#CCOc1ccc(Nc2nc(Nc3ccc(C)c(S(N)(=O)=O)c3)ncc2F)cc1 [Compound I besylate salt, N2-(3-aminosulfonyl-4-methylphenyl)-5-fluoro-N4-[4-(prop-2-ynyloxy)phenyl]-2,4-pyrimidinediamine]
[1]; PEG400 (temperature not given)
  solubility: 48000 µg/mL
[1]; PG
  solubility: 15 ^d mg/mL

## C#CCOc1ccc(Nc2nc(Nc3ccc(C)c(S(N)(=O)=O)c3)ncc2F)cc1 [Compound I, N2-(3-aminosulfonyl-4-methylphenyl)-5-fluoro-N4-[4-(prop-2-ynyloxy)phenyl]-2,4-pyrimidinediamine]
[2]; 4% H2O-96% THF, organic solvent or mixture, 4% H2O-96% THF, read-out: Solubility
  solubility: 77000 µg/mL (≈ 180 mM)
[2]; 12% H2O-88% THF, organic solvent or mixture, 12% H2O-88% THF, read-out: Solubility
  solubility: 202000 µg/mL (≈ 473 mM)
[2]; 16% H2O-84% THF, organic solvent or mixture, 16% H2O-84% THF, read-out: Solubility
  solubility: 163000 µg/mL (≈ 381 mM)
[2]; 95% THF-5% PEG400, organic solvent or mixture, 95% THF-5% PEG400, read-out: Solubility
  solubility: 70000 µg/mL (≈ 164 mM)
[2]; DMI, 25 °C, organic solvent or mixture, DMI, determined at 25° C., read-out: Solubility
  solubility: 124000 µg/mL (≈ 290 mM)
[2]; Miglyol 812N, oil or lipid, Miglyol 812N, read-out: Solubility
  solubility: 2300 µg/mL (≈ 5.38 mM)
[2]; at 45° C. in a formulation containing 14% water, 45% PEG400, and 20% PEG4500
  compound I concentration that can be obtained (solubility study): 120 mg/g
[2]; castor oil, oil or lipid, Castor Oil, read-out: Solubility
  solubility: 7400 µg/mL (≈ 17.3 mM)
[2]; water, 25 °C, water, 25° C., read-out: water solubility
  solubility: 2 µg/mL (≈ 0.00468 mM)
[3]
  IC50: 0.056 nM
[4]
  IC50: 0.181 nM
[5]
  EC50: ~140 nM
[6]
  activity on other cytokine (IL-1β and TNFα) signaling: little or no activity
[7]
  activity on receptor tyrosine kinase (RTK) signaling: little or no activity
[8]
  inhibition of cell proliferation: not a broad inhibitor of cell proliferation
[1]; 5% THF-95% PEG400, organic solvent or mixture, 5% THF-95% PEG400, read-out: Solubility
  solubility: 117000 µg/mL (≈ 274 mM)
[1]; 10% THF-90% PEG400, organic solvent or mixture, 10% THF-90% PEG400, read-out: Solubility
  solubility: 129000 µg/mL (≈ 302 mM)
[1]; 20% EtOH-80% PEG400, organic solvent or mixture, 20% EtOH-80% PEG400, read-out: Solubility
  solubility: 126000 µg/mL (≈ 295 mM)
[1]; 20% H2O-80% THF, organic solvent or mixture, 20% H2O-80% THF, read-out: Solubility
  solubility: 133000 µg/mL (≈ 311 mM)
[1]; 50% EtOH-50% PEG400, organic solvent or mixture, 50% EtOH-50% PEG400, read-out: Solubility
  solubility: 136000 µg/mL (≈ 318 mM)
[1]; 90% THF-10% PEG400, organic solvent or mixture, 90% THF-10% PEG400, read-out: Solubility
  solubility: 75000 µg/mL (≈ 175 mM)
[1]; EtOH, 25 °C, organic solvent or mixture, EtOH, determined at 25° C., read-out: Solubility
  solubility: 3200 µg/mL (≈ 7.49 mM)
[1]; Glycofurol, listed as Compound I free base
  solubility: >205 ^b mg/mL
[1]; PEG400 (temperature not given), listed as Compound I free base
  solubility: 129 ^c mg/mL
[1]; PEG400, 25 °C, organic solvent or mixture, PEG400, determined at 25° C., read-out: Solubility
  solubility: > 200000 µg/mL
[1]; PEG400, determined at 25° C.
  solubility: 292000 µg/mL (≈ 683 mM)
[1]; PG, listed as Compound I free base
  solubility: 27 ^c mg/mL
[1]; glycofurol, organic solvent or mixture, Glycofurol, read-out: Solubility
  solubility: > 200000 µg/mL
[1]; glycofurol/water 8/2, organic solvent or mixture, Glycofurol/water 8/2, read-out: Solubility
  solubility: < 205000 µg/mL
[1]; glycofurol/water 9/1 w/w, organic solvent or mixture, Glycofurol/water 9/1 w/w, read-out: Solubility
  solubility: > 202000 µg/mL
[1]; water, 25 °C, water, determined at 25° C., read-out: Solubility
  solubility: 2 µg/mL (≈ 0.00468 mM)

## C#CCOc1ccc(Nc2nc(Nc3ccc(C)c(S(N)(=O)=O)c3)ncc2F)cc1 [Compound I HCl, N2-(3-aminosulfonyl-4-methylphenyl)-5-fluoro-N4-[4-(prop-2-ynyloxy)phenyl]-2,4-pyrimidinediamine]
[2]; 40% TPGS/60% PEG400, organic solvent or mixture, 40% TPGS/60% PEG400, read-out: Solubility
  solubility: 1700 µg/mL
[2]; IPA, organic solvent or mixture, IPA, read-out: Solubility
  solubility: 37 µg/mL
[2]; oleyl alcohol, oil or lipid, Oleyl alcohol, read-out: Solubility
  solubility: 200 µg/mL
[2]; polyoxyglyceride (Labrafil M1944 CS), oil or lipid, Polyoxyglyceride (Labrafil M1944 CS), read-out: Solubility
  solubility: 70 µg/mL
[2]; polyoxyglyceride (Labrasol), oil or lipid, Polyoxyglyceride (Labrasol), read-out: Solubility
  solubility: 1800 µg/mL
[2]; triglyceride, oil or lipid, Triglyceride, read-out: Solubility
  solubility: 20 µg/mL
[1]; DMI, organic solvent or mixture, DMI (temperature not given), read-out: Solubility
  solubility: 400 µg/mL
[1]; EtOH, organic solvent or mixture, EtOH (temperature not given), read-out: Solubility
  solubility: 300 µg/mL
[1]; PEG400 (temperature not given)
  solubility: 2.6 ^e mg/mL
[1]; PG
  solubility: 5.2 ^e mg/mL
[1]; diethylene glycol monoethyl ether (Transcutol P), organic solvent or mixture, Diethylene glycol monoethyl ether (transcutol P), read-out: Solubility
  solubility: 900 µg/mL
[1]; isopropyl myristate, oil or lipid, Isopropyl Myristate, read-out: Solubility
  solubility: 5 µg/mL
[1]; propylene glycol laurate (Lauroglycol FCC), oil or lipid, Propylene Glycol Laurate (Lauroglycol FCC), read-out: Solubility
  solubility: 20 µg/mL
[1]; propylene glycol monocaprylate (Capryol 90), oil or lipid, Propylene Glycol Monocaprylate (Capryol 90), read-out: Solubility
  solubility: 70 µg/mL
